Measurements taken from US9328093B2, “Selective inhibitors of ubiquitin specific protease 7, the pharmaceutical compositions thereof and their therapeutic applications” (HYBRIGENICS SA, priority 2010, dated 2016).

The compounds below were run against T1, USP8 (Homo sapiens, UniProt P40818) (assay: USP8 activity assay (Ub-AMC substrate)). Conditions: Ub-AMC 300 nM, USP8 1.36 nM.
T1 construct: His (from pFastBac-HT vector) (N); made in house; host or cells: Sf9 or High Five insect cells, baculovirus
T1 sequence (P40818 1-1118): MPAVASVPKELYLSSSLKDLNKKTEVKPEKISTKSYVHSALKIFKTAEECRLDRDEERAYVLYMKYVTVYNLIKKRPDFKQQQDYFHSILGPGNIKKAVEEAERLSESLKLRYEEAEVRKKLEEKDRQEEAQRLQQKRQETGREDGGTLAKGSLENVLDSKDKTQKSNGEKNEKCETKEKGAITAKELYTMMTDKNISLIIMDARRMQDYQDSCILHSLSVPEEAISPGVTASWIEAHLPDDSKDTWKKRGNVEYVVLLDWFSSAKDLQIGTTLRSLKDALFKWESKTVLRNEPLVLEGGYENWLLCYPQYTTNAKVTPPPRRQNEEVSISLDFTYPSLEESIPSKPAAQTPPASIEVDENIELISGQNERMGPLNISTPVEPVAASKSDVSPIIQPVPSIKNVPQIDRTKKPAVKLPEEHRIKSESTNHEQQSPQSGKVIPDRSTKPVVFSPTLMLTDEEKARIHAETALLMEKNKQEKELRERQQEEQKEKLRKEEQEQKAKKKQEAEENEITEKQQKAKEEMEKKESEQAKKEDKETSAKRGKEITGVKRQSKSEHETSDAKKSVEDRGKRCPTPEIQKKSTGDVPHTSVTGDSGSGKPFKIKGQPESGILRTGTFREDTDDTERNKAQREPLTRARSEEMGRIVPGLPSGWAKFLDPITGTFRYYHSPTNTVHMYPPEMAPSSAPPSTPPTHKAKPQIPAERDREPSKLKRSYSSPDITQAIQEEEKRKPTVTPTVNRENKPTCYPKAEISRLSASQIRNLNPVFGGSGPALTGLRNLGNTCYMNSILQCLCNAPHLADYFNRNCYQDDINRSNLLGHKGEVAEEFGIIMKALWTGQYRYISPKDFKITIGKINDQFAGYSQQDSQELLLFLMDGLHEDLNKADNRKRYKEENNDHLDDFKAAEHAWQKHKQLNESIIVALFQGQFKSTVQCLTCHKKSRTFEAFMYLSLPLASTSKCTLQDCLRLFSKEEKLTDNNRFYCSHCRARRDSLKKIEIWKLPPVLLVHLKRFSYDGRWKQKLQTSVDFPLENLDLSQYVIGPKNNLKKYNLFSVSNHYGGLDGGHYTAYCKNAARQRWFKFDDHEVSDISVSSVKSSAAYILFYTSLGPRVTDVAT
Type: biochemical
Description: The cDNA encoding USP8 was obtained by PCR amplification from placenta mRNA. USP8 cDNA was subcloned by PCR into a baculovirus expression vector (pFastBac-HT; Invitrogen). A cDNA encoding a mutated USP8 was generated by mutagenic PCR. The corresponding protein encodes a cysteine to alanine substitution at residue 786. The sequences were ascertained by sequencing of the entire open reading frame. Bacmids encoding USP8 were generated following DH10bac transposition. The corresponding bacmids were transfected into insect cells (Sf9). Viruses were recovered from culture supernatant and amplified twice. Insect cells (Sf9 or High Five; Invitrogen) were infected for 72 hours. Total cell lysates were harvested and lyzed in lysis buffer (Tris HCl 50 mM pH7.6; 0.75% NP40; 500 mM NaCl; 10% glycerol; 1 mM DTT; 10 mM imidazole; Protease Inhibitor Cocktail; AEBSF 20 μg·ml^−1; Aprotinin 10 μg·ml^−1). Proteins were affinity purified on metal affinity resins (Talon Metal affinity resin; BD Biosciences). Bound materials were extensively washed in wash buffer (50 mM Sodium Phosphate pH 7.0; 300 mM NaCl; 10 mM imidazole; 0.5% Triton X-100; 10% glycerol) and eluted from the resin in 250 mM imidazole-containing wash buffer. Proteins were dialyzed in dialysis buffer (Tris HCl pH 7.6 20 mM; NaCl 200 mM; DTT 1 mM; EDTA 1 mM; 10% Glycerol). Proteins purifications were analyzed on 4-12% NuPAGE (Invitrogen).
USP8 was diluted in USP buffer (50 mM Tris HCl; 0.5 mM EDTA; 5 mM DTT; 0.01% Triton X-100; Bovine Serum Albumin 0.05 mg·ml^−1 pH8.8). Compounds stocks (100 mM) were stored at −20° C. in DMSO. Compounds were tested at different concentrations: from 200 μM to 91 nM.
Reactions were performed as duplicates in Black 384 well plates (small volume microplates; Greiner; 10 μl final reaction volume). The substrate concentration for USP8 was 300 nM Ub-AMC (Boston Biochem). The concentration of the enzyme (USP8) in specificity assays was 1.36 nM. The concentrations were determined in order to perform specificity assays under initial velocities at fixed substrate concentration. Compounds were pre-incubated with enzymes for 30 minutes at 25° C. Reactions were initiated by addition of substrate to the plates containing the enzymes (+/− compounds) diluted in assay buffer. Reactions were incubated for 60 minutes at 37° C. Reactions were stopped by adding acetic acid (100 mM final). Readings were performed on a Pherastar Fluorescent Reader (BMG). λ Emission 380 nm: λ Excitation=460 nm. Data (mean values +/− standard deviation) were analyzed as % of control (no compound) and plotted as percentage versus the Log of the compound concentration using GraphPad (Prism). Data were fitted to a sigmoidal model (variable slope).

Row | Structure (SMILES) | IC50
1 | CN1CCCC1CCNC(=O)c1ccc2c(Cl)c3c(nc2c1)CCCC3 (stereo not drawn) [Example 17, 9-chloro-N-(2-(1-methylpyrrolidin-2-yl)ethyl)-5,6,7,8-tetrahydroacridino-3-carboxamide] | > 200 µM
2 | O=C(NCc1cccc(CN2CCCC2)c1)c1ccc2c(Cl)c3c(nc2c1)CCCC3 [Example 18, 9-chloro-N-(3-(pyrrolidin-1-ylmethyl)benzyl)-5,6,7,8-tetrahydroacridine-3-carboxamide] | > 200 µM
3 | O=C(Nc1cccc(CN2CCCC2)c1)c1ccc2c(Cl)c3c(nc2c1)CCCC3 [Example 19, 9-chloro-N-(3-(pyrrolidin-1-ylmethyl)phenyl)-5.6,7,8-tetrahydroacridine-3-carboxamide] | > 200 µM
4 | CC1CCCCN1CCCNC(=O)c1ccc2c(Cl)c3c(nc2c1)CCCC3 (stereo not drawn) [Example 20, 9-chloro-N-(3-(2-methylpiperidin-1-yl)propyl)-516,7,8-tetrahydroacridine-3-carboxamide] | > 200 µM
5 | O=C(NCc1ccc(CN2CCCC2)cc1)c1ccc2c(Cl)c3c(nc2c1)CCCC3 [Example 21, 9-chloro-N-(4-(pyrrolidin-1-ylmethyl)benzyl)-5,6,7,8-tetrahydroacridine-3-carboxamide] | > 200 µM
6 | COc1ccc(CN2CCC(CNC(=O)c3ccc4c(Cl)c5c(nc4c3)CCCC5)CC2)cc1 [Example 22, 9-chloro-N-((1-(4-methoxybenzyl)piperidin-4-yl)methyl)-5,6,7,8-tetrahydroacridine-3-carboxamide] | > 200 µM
7 | CN(C)c1ccc(CN2CCC(CNC(=O)c3ccc4c(Cl)c5c(nc4c3)CCCC5)CC2)cc1 [Example 23] | > 200 µM
8 | O=C(NCC1CCNCC1)c1ccc2c(Cl)c3c(nc2c1)CCCC3 [Example 24, 9-chloro-N-((piperidin-4-yl)methyl)-5,6,7,8-tetrahydroacridine-3-carboxamide] | ~200 µM
9 | O=C(NCC(CN1CCCC1)C(O)c1ccccc1)c1ccc2c(Cl)c3c(nc2c1)CCCC3 (stereo not drawn) [Example 25, 9-chloro-N-(3-hydroxy-3-phenyl-2-pyrrolidin-1-ylmethylpropyl)-5,6,7,8-tetrahydroacridine-3-carboxamide] | > 200 µM
